Measured values: PMC12848304, “Small-molecule inhibitor of C‑terminal HSP90 dimerization modulates autophagy and functions synergistically with mTOR inhibition to kill cisplatin-resistant cancer cells” (Cell Death & Disease, 2025)

Tests used:
[1] = target: T1, HSP90β (Homo sapiens, UniProt P08238); experiment: TR-FRET HSP90 CTD/PPID interaction assay ([…]); assay type: biochemical
T1 construct: gene HSP90AB1; C-terminal domain (CTD); with PPID

[2] = target: T2, HSP90α CTD (Homo sapiens, UniProt P07900); experiment: thermal shift assay (SYPRO orange, […]) with recombinant HSP90α CTD; supported by BS3 cross-linking (loss of CTD dimers) and CETSA; assay type: binding; conditions: read-out: thermal shift assay (SYPRO orange, 100 μM) with recombinant HSP90α CTD; supporte
T2 construct: gene HSP90AA1; recombinant C-terminal domain (CTD)
T2 sequence (P07900 626-732 limits assumed): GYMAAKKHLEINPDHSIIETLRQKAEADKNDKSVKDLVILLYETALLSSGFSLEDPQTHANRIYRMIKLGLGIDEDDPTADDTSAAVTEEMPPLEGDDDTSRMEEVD

T1 sequence (P08238 553-724 limits assumed): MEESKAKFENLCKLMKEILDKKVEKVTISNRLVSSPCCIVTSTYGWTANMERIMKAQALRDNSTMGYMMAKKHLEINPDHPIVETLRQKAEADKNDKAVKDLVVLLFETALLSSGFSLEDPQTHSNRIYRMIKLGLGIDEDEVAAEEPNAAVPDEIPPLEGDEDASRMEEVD
T1 sequence (Q08752 2-370 partner): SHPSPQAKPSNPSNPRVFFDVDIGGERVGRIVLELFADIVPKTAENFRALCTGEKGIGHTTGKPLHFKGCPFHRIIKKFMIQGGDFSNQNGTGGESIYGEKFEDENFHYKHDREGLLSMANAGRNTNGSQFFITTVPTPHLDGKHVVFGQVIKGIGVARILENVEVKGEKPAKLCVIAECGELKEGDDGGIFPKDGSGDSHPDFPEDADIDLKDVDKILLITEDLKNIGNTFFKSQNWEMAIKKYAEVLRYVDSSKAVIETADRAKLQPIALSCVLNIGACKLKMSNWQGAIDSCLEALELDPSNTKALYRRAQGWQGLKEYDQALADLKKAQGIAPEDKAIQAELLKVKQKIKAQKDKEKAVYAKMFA

ΔTm at 100 µM [2]: -8.43 ± 2.75 °C
SMILES: CCC(C)n1c(C(=O)Nc2cnc(C(=O)NC)n(CC(C)C)c2=O)ncc(NC(=O)c2ncc(N)c(=O)n2Cc2ccc(OC)cc2)c1=O (centres unmarked) [compound 2, VWK147]
TR-FRET HSP90 CTD/PPID interaction assay (1 mM) [1]: VWK147 disrupts the binding of Peptidyl prolyl isomerase D (PPID, CTD-specific co-chaperone) to the CTD of recombinant HSP90β
